The values below come from US9956144B2, “Process for particle processing of active pharmaceutical ingredients” (HOVIONE INTER LIMITED, priority 2010, dated 2018).

Common to all, as to format: physicochemical
Data set [1] is described as follows: XRPD of the isolated product (polymorphic form after HPC and spray drying). The note with it: after HPC followed by spray drying.
Data set [2] can be described thus: Particle size distribution of the powder produced by high pressure cavitation (HPC) and spray drying. The conditions noted are these: dry powder after HPC followed by spray drying. From the text: The suspension may be passed through a high pressure cavitation apparatus several times until the desired particle size and size distribution is achieved. […] The recirculation may, for example, be performed from 2-30 times (or cycles) depending upon the API. Preferred cycle ranges include from 5 to 25 and 15 to 25. […] As will be clear to those in the art, span is defined by the ratio ((Dv90−Dv10)/Dv50), with Dv being the diameter value at which a defined percentage of the particles (eg 10%, 50% or 90% in the equation) have a diameter equal to or less than the Dv value.

Data set [3] can be described thus: TGA of the isolated product. The note with it: after HPC followed by spray drying.
Data set [4] can be described thus: Amorphous content determined by dynamic vapour sorption (DVS). The note with it: after HPC followed by spray drying.
Data set [5] can be described thus: Detection of the anhydrous form by near infrared spectroscopy. The note with it: after HPC followed by spray drying.

With `C[C@@H]1C[C@H]2[C@@H]3C[C@H](F)C4=CC(=O)C=C[C@]4(C)[C@@]3(F)[C@@H](O)C[C@]2(C)[C@@]1(OC(=O)c1ccco1)C(=O)SCF` [Fluticasone furoate], the “XRPD of the product isolated (polymorphic form retained)” value (shortened to “XRPD of the product isolated”) in data set [1] is given as “substantially the same as the starting material”. Further, in data set [2], the Dv10 is 0.89 μm, the Dv50 is 1.95 μm, the Dv90 is on record as 3.78 μm and the “span ((Dv90−Dv10)/Dv50)” value was 1.5.
Take `CCC(=O)O[C@]1(C(=O)SCF)[C@H](C)C[C@H]2[C@@H]3C[C@H](F)C4=CC(=O)C=C[C@]4(C)[C@@]3(F)[C@@H](O)C[C@@]21C` [Fluticasone propionate]: the “XRPD of the product isolated” value in data set [1] is reported as “substantially the same as the starting material”. Also, in data set [2], the Dv10 was determined as 1.20 μm, the Dv50 was found to be 2.45 μm, the Dv90 is 4.68 μm and the “span ((Dv90−Dv10)/Dv50)” value is recorded as 1.4.
In the case of `C[C@@H]1C[C@H]2[C@@H]3CCC4=CC(=O)C=C[C@]4(C)[C@@]3(Cl)[C@@H](O)C[C@]2(C)[C@@]1(OC(=O)c1ccco1)C(=O)CCl` [Mometasone furoate monohydrate], the “XRPD of the product isolated” value in data set [1] is given as “substantially the same as claimed in U.S. Pat. No. 6,180,781B1”. In addition, the TGA value in data set [3] was 3.0%. In addition, the amorphous content result in data set [4] is reported as “below 1.1%”. Besides, in data set [2], the Dv10 is given as 1.91 μm, the Dv50 is recorded as 3.97 μm, the Dv90 is 7.47 μm and the “span ((Dv90−Dv10)/Dv50)” value was 1.4. Moreover, in data set [5], the anhydrous form result is “not detected”.
In the case of `OCc1cc(C(O)CNCCCCCCOCCCCc2ccccc2)ccc1O` (stereo not drawn) [Salmeterol xinafoate], the “XRPD of the product isolated” value in data set [1] was “substantially the same as the starting material”. In data set [2], the Dv10 is recorded as 0.33 μm, the Dv50 stood at 1.37 μm, the Dv90 worked out at 3.09 μm and the “span ((Dv90−Dv10)/Dv50)” value is 2.0.
`C[N+]1(C)[C@@H]2C[C@@H](OC(=O)C(O)(c3cccs3)c3cccs3)C[C@H]1[C@@H]1O[C@@H]12` [Tiotropium bromide]: in data set [2], the Dv10 is 0.74 μm, the Dv50 turned out to be 2.90 μm, the Dv90 is 5.58 μm and the “span ((Dv90−Dv10)/Dv50)” value turned out to be 1.7.
